The text below walks through data of EP1286591B1, “TREATING SMOOTH MUSCLE HYP[…] (R)-OXYBUTYNIN AND (R)- DESETHYLOXYBUTYNIN” (Watson Pharmaceuticals, Inc., priority 2000, dated 2001).

Data set [1] can be described thus: Therapeutic effects compared with the racemates and optical antipodes. The conditions noted are these: compared to their corresponding racemates and their optical antipodes.
Data set [2] is described as follows: Tolerability in laboratory animals (acute toxicity in mice). The format is in vivo. The conditions noted are these: compared with the S(+)-isomer. The method, then:
The experiments are carried out on conscious albino mice that are administered escalating doses of the test compounds intravenously or orally.

The nature of data set [3]: Cardiovascular depressing activity (cardiac side effect studies). The format is in vivo, guinea pigs. The conditions noted are these: unwanted side effect of racemic oxybutynin. As to the method:
Male guinea pigs (450-600 g) are anesthetized with freshly prepared dialurethane sodium. The jugular vein is catheterized for iv administration of test drugs and the trachea is exposed and cannulated. Subdermal electrodes are positioned for Lead II electrocardiogram recording, monitored on a Grass Polygraph recorder, set at a paper speed of 50 mm/sec. The animals are allowed to stabilize for 30 minute after completion of surgery, and three baseline EKG recordings are then made at 10-minute intervals. The animals are then given a dose of the test compound or vehicle as an intravenous infusion over 30 min. EKG recordings are used to determine QT intervals and heart rates. To compensate for variations in heart rates, QTc intervals are calculated from QT- and RR-intervals as known to those skilled in the art. Prolongation of QTc is indicative of a prolonged action potential, caused by an inhibition of the delayed rectifier potassium channel. Prolongation of QTc is the known cause of Torsades de Pointes ventricular fibrillation by drugs such as terodiline, terfenadine and astemizole (now withdrawn from the market).

Take `CCNCC#CCOC(=O)[C@](O)(c1ccccc1)C1CCCCC1` [R(-)-isomer of desethyloxybutynin, R(-)-4-ethylamino-2-butynyl cyclohexylphenyl-glycolate]: the therapeutic effects result in data set [1] is listed as “superior therapeutic effects”.

Take `CCN(CC)CC#CCOC(=O)[C@](O)(c1ccccc1)C1CCCCC1` [R(-)-isomer of oxybutynin, R(-)-4-diethylamino-2-butynyl_-cyclohexyl-_-hydroxy-benzeneacetate]: the “tolerated when given to laboratory animals” value in data set [2] is “much better tolerated than the S(+)-isomer”. Moreover, the therapeutic effects entry in data set [1] is given as “superior therapeutic effects”.

As to `CCNCC#CCOC(=O)[C@@](O)(c1ccccc1)C1CCCCC1` [S(+)-isomer of desethyloxybutynin], the cardiovascular depressing activity entry in data set [3] is reported as “serious cardiovascular depressing activity”.

Turning to `CCN(CC)CC#CCOC(=O)[C@@](O)(c1ccccc1)C1CCCCC1` [S(+)-isomer of oxybutynin], in data set [3], the cardiovascular depressing activity entry is given as “serious cardiovascular depressing activity”.
